Reference: patent US20040116386A1, “Resveratrol-phospholipids complexes, their preparation, and pharmaceutical and cosmetic composition containing same” (priority 2001, published 2004)

Experiments:
[1] = Permeability through rabbit colon, Ussing Chamber method; format: in vitro ADME
Description: This device consists of: 6 cells divided into two parts by a septum, which accommodate the tissue obtained from the rabbit colon; an oxygenation system; a system for the circulation of a specific buffer solution maintained at constant temperature by heating; and finally electrodes for measuring the compound concentration variations, wherefrom the apparent permeability coefficient (Papp), expressed in cm/sec, is obtained.

[2] = Pharmacokinetic study, oral administration to rats; format: in vivo; settings: rat, blood, equimolecular doses (Resveratrol 2 mg/Kg, complex 9.13 mg/Kg)
Description: The product concentration in blood was determined at prefixed time intervals.

Papp [1]: 0.2 ×10⁻⁶ cm/s
concentration at 15 min ([2]; 15 min): 18 ng/mL
concentration at 30 min ([2]; 30 min): 34 ng/mL
concentration at 60 min ([2]; 60 min): 43 ng/mL
concentration at 120 min ([2]; 120 min): 11 ng/mL
concentration at 240 min ([2]; 240 min): 0 ng/mL
SMILES: Oc1ccc(/C=C/c2cc(O)cc(O)c2)cc1 [trans-Resveratrol]
